Reference: patent publication US9487596B2, “Compound isolated from quamoclit, and composition for preventing or treating diabetes containing the compound as an active ingredient” (NANOBIOTECH CO., LTD., priority 2011, dated 2016)

Tests used:
VEGF protein = VEGF protein expression in ARPE 19 cells induced with 30 mM glucose (VEGF ELISA); assay type: cell-based, human; details: 0.5 μg/ml, 72 hours, FIG. 5
Description: In order to confirm inhibition activity of VEGF of the novel compound isolated from the Quamoclit angulata prepared in Example 1 above, ARPE 19 cell line which is human retinal pigment epithelium cell line was treated with the novel compound and expression of the VEGF protein inducting diabetic complications such as diabetic retinopathy, and the like was confirmed.
10% fetal bovine serum (FBS) was added to DMEM; F12 medium and ARPE 19 cell line (ATCC, USA) was cultured therein. In order to induce expression of the VEGF protein from ARPE 19 cell line, the cells were smeared on 60Φ plate at a concentration of 1×10^5 cell/plate, 10% FBS serum-free was added to DMEM low glucose medium, followed by culturing for 24 hours, the culture fluid was changed into a culture fluid containing 30 mM glucose in the DMEM low glucose medium, and the novel compound KRIBB-BH-P was added thereto so that a final concentration thereof was 0.5 μg/ml, followed by culturing for 72 hours in order to confirm production of VEGF protein. […]
The culture fluid of ARPE 19 cell cultured by the above-described method was obtained and an amount of the secreted VEGF was measured using VEGF ELISA kit (R&D, UK).

Min 6 cell line = test: Insulin secretion in Min 6 pancreatic β cell line (insulin ELISA); assay type: cell-based, mouse; details: Min 6 cells, 25 mM glucose, 0.5 ng/ml, 2 hours, FIG. 6
Description: An insulin secretion acceleration activity of the novel compound KRIBB-BH-P isolated from Quamoclit angulata was confirmed in Min 6 cell line which is a mouse pancreatic β cell tumor.
15% FBS was added to HDMEM medium and Min 6(ATCC, USA) was cultured therein. In order to induce insulin expression from Min 6 cell line, the cells were smeared on a 96 well plate at a concentration of 1×10^4 cell/plate, 15% FBS serum-free was added to DMEM high glucose medium, followed by culturing for 72 hours, washing with PBS buffer solution, and then culturing in HBSS buffer solution for 2 hours, the culture fluid was changed into HBSS buffer solution having 25 mM glucose added thereto, and the novel compound KRIBB-BH-P was added thereto so that a final concentration thereof was 0.5 ng/ml, followed by culturing for 2 hours in order to confirm whether or not the insulin expression was promoted. Here, an amount of insulin expression in cell in which insulin expression was not induced by treatment with 5.5 mM glucose was set as a reference point which is a control group, and a positive control group was prepared by adding amino-guanidine of 1 μM, acarbose of 1 μM, glimepiride of 1 mM. […] The culture fluid of Min 6 cell cultured by the above-described method was obtained and an amount of the secreted insulin was measured using Insulin ELISA kit (R&D, UK).

lens = test: Lens culture experiment, xylose-induced lens opacity; details: mouse lens, 20 mM xylose, compared to positive control quercetin, FIG. 7
Description: In the case of diabetic, a cataract is developed at an early stage, becomes rapidly worse and eyesight is rapidly deteriorated. Diabetes promotes opaque crystalline lens. Accordingly, diabetic cataract inhibition efficiency was examined by a lens culture experiment.
Eyes of a mouse was extracted and put into an iodine solution to be disinfected and then only the lens was extracted. The extracted eyes were put into M199 medium and cultured in a cell incubator. 20 mM xylose was added to the medium to induce lens opacity and the induced lens opacity was measured using CCD camera.

C57BL/Ks DB/DB mouse = test: Blood glucose in diabetic mice; assay type: in vivo; details: oral, each of 0.1 mg/kg, 1 mg/kg and 10 mg/kg, 12 weeks, FIG. 8
Description: Normal mice and diabetic mice were treated with the Quamoclit angulata-derived novel compound and change in diabetic indexes including blood glucose, glycated hemoglobin, and urinary protein was confirmed.
6-week-old mice (Male C57BL/6J mouse, 20 g, Central Lab. Animal Inc., Seoul) and 6-week-old diabetic mice (Male C57BL/Ks DB/DB mouse, 20 g, Central Lab. Animal Inc., Seoul) were purchased and adopted under predetermined temperature (25° C.) and humidity (50%) for 1 week and used in an experiment.
(§1) A normal mouse control group, a diabetic mouse control group, a diabetic mouse group treated with drugs (glimepiride and acarbose), and a diabetic mouse group treated with Quamoclit angulata-derived novel compound were prepared, wherein each group had five mice, and each group treated with the combination administration of the Quamoclit angulata-derived novel compound was treated by oral administration at each concentration of 0.1 mg/kg, 1 mg/kg and 10 mg/kg and raised for 12 weeks. A change in blood glucose in mice of each group was measured every 2 weeks and urine was collected every 6 weeks to measure a urinary protein concentration, and mice was raised for 12 weeks and blood thereof was collected to measure glycated hemoglobin concentration.

C57BL/6J mouse = test: Oral glucose tolerance test in high-fat diet mice; assay type: in vivo; details: oral dosing 1, 2, 4, 8, 16, 24 hours before glucose 2 g/kg, result for the 24 hours group, FIG. 9
Description: In order to conduct an oral glucose tolerance test, a 5-week-old mouse (Male C57BL/6J, 19 g, Koatech, Pyeongtaek-si, Gyeonggi-do, Korea) was purchased and adopted under predetermined temperature (25° C.) and humidity (50%) for 1 week and used in an experiment. A general diet group having a general feed as a food and a high-fat diet group having a high-fat feed as a feed were prepared, wherein each group had five mice, and raised for 2 weeks. At the time of two weeks after feeding with high-fat diet, the experimental mice were fasting for 16 hours, and the fasting blood glucose was measured, and then, the sample was orally administered at 1, 2, 4, 8, 16, and 24 hours before measuring the blood glucose, followed by oral administration of glucose 2 g/kg (body weight) and blood glucose thereof was measured every 30 minutes.

diabetic mouse [1] = test: Glycated hemoglobin (HbAlc) in diabetic mice (ELISA); assay type: in vivo; details: oral 10 mg/kg, compared to the normal mouse control group (so in the source), FIG. 10
Description: as §1
In order to decrease complications developed in patients receiving diabetes treatment, it is important to maintain blood glucose at an appropriate level. Since blood glucose measured at one time point may be changed by various factors, the most widely used test with a purpose of identifying a long-term change in regulation of blood glucose is glycated hemoglobin (HbAlc). […] Since the glycated hemoglobin reflects an average blood glucose value for 2 to 4 months, it is useful for identify a degree of regulation of blood glucose in a long term. […]

diabetic model mouse = test: Creatinine in blood and urine of diabetic mice (ELISA); assay type: in vivo; details: oral, 12 weeks, FIG. 11
Description: Diabetic patients are common to have both of kidney and heart complication. Diabetes may damage kidney which filters and excretes our body's waste. Through creatinine test, a concentration of creatinine in a blood may be measured and a function of kidney may be evaluated creatinine, which is a product obtained by dehydrating creatine produced after protein is used in muscle, is present in a blood with an extremely small amount. In the case in which a function of the kidney is deteriorated, creatinine may not be excreted. Urine and blood from diabetic model mouse of each group treated by oral administration for 12 weeks were collected, and creatinine was measured using ELISA kit (R&D, USA).

diabetic mouse [2] = test: Liver toxicity test: alanine transaminase in blood of diabetic mice; assay type: in vivo; details: oral 0.1-10 mg/kg, 12 weeks, FIG. 12
Description: A 6-week-old mouse and a 6-week-old diabetic mouse which are the same as Example 5 above were adapted under predetermined temperature (25° C.) and humidity (50%) for 1 week and used in a liver toxicity test.
A normal mouse control group, a diabetic mouse control group, and each diabetic mouse group treated with Quamoclit angulata-derived novel compound by oral administration at each concentration of 0.1 mg/kg, 1 mg/kg and 10 mg/kg were prepared, wherein each group had five mice, and raised for 12 week. After raising the mice for 12 weeks, blood thereof was collected and a concentration of alanine transaminase was measured.
The alanine transaminase, which is a metabolic enzyme of amino acid, is used in a representative test for diagnosis and result observation.
In order to confirm effects of the Quamoclit angulata-derived novel compound on liver, a normal mouse control group, a diabetic mouse control group and each group treated with Quamoclit angulata-derived novel compound by oral administration at each concentration of 0.1 mg/kg, 1 mg/kg and 10 mg/kg were raised for 12 weeks and blood thereof were collected and a change in alanine transaminase measured using ELISA kit (Cusabio biotech, Japan).

diabetic mouse [3] = test: Liver function: bilirubin in blood of diabetic mice (ELISA); assay type: in vivo; details: blood after 12 weeks, FIG. 13
Description: In order to confirm whether or not liver function was normal in the group treated with Quamoclit angulata-derived novel compound, bilirubin value was measured using ELISA kit (Cusabio biotech, Japan) using blood collected in Example above. […] Therefore, it may be appreciated that the composition of the present invention is safe composition not causing abnormal liver function.

diabetic mouse [4] = test: Insulin resistance (HOMA-IR) and β-cell functionality (HOMA-beta) in diabetic mice; assay type: in vivo; details: FIG. 14
Description: Insulin and blood glucose of the diabetic mouse group raised under conditions of Example 7 above were measured by the fasting blood test or glucose tolerance test and insulin sensitivity index thereof was calculated.
Insulin resistance was evaluated using the insulin sensitivity index which is homeostasis assessment (HOMA)-IR and β-cell Functionality was evaluated by HOMA-beta.
HOMA-IR=(Fasting insulin (μIU/mL)×Fasting glucose ([…]))/22.5 HOMA-beta=20×Fasting insulin (U/mL)/Fasting glucose (mmol/L)−3.5

adiponectin = test: Adiponectin concentration in blood of diabetic mice (ELISA); assay type: in vivo, mouse; details: FIG. 15
Description: It has consistently proven that adiponectin is secreted from fat cells and abundantly present in blood, is decreased in an obesity patient or type 2 diabetic. In addition, low hypoadiponectinemia is on the rise as a new risk factor of artherosclerotic disease, and a concentration of adiponectin in diabetic patients, in particular, patients accompanying macrovascular complications is decreased. That is, adiponectin has an anti-obesity action, an anti-diabetic action, anti-atherogenic action and an inhibition action of active oxygen generation. A concentration of adiponectin in the blood of the diabetic mouse group raised under conditions of Example 7 was measured using ELISA kit (R&D, USA).

glucagon = test: Plasma glucagon concentration in diabetic mice; assay type: in vivo, mouse
Description: In type 2 diabetic patients, blood glucose is increased, insulin secretion by glucose intake is delayed, and glucagon is increased. It is generally known that decrease in a ratio of insulin to plasma glucagon is associated with deterioration of diabetes. Therefore, a concentration of glucagon of the diabetic mouse group raised under conditions of Example 7 above was confirmed.

DPP-IV = target: T1, DPP-IV (Mus musculus, UniProt P28843); test: DPP-IV activity in diabetic mice; assay type: in vivo; details: FIG. 17
T1 construct: from tissue
Description: Both of GIP and GLP-1 are rapidly decomposed by dipeptidyl peptidase (DPP)-4 which is a series of serine protease. DPP-4 inhibition efficacy of the diabetic mouse group raised under conditions of Example 7 above was confirmed based on the above description.

alpha-glucosidase = test: Alpha-glucosidase activity in diabetic mice; assay type: in vivo, mouse; details: FIG. 18
Description: Activity of alpha-glucosidase of the diabetic mouse group raised under conditions of Example 7 above was measured based on the above-description.

TNF-α = TNF-α concentration in diabetic mice; assay type: in vivo, mouse; details: FIG. 19
Description: TNF-α concentration of the diabetic mouse group raised under conditions of Example 7 above was measured based on the above-description.

diabetic mouse [5] = test: Anti-cataract effect: eye lens turbidity in diabetic mice; assay type: in vivo; details: FIG. 20
Description: Eye lens was isolated from eyeball extracted from the diabetic mouse group raised under conditions of Example 7 above and moved to a well plate and then a photograph thereof was taken by LAS 3000 image analysis system. Turbidity of the eye lens was measured by analyzing the photograph using LAS 300 image analysis program.

T1 sequence (P28843 whole entry): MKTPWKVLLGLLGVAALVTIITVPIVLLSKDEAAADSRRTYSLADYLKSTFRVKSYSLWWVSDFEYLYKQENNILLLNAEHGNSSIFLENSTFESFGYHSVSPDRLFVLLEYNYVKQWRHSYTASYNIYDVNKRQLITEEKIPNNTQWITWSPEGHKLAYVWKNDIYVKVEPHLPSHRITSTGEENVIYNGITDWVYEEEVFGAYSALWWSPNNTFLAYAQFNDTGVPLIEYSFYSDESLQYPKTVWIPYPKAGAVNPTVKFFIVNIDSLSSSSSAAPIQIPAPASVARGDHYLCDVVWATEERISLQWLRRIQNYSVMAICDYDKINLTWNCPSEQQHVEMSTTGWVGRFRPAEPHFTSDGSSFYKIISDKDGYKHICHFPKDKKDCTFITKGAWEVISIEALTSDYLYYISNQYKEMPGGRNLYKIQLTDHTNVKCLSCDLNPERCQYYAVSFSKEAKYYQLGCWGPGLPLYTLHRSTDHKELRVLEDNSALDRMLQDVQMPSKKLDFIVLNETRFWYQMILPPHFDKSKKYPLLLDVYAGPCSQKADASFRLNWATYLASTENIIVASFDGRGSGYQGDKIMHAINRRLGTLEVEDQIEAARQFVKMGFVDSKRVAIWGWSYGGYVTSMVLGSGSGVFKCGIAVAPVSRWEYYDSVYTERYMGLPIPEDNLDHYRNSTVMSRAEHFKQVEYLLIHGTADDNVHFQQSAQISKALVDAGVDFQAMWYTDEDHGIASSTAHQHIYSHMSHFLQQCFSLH

CCCCCC(CCCC(O)CC(=O)O)OC1OC(COC2OC(C)C(OC3CC(O)C(O)C(C)O3)CC2O)C(O)C(O)C1OC1CC(O)C(OC2CC(O)C(OC3CC(O)C(OC)C(C)O3)C(C)O2)C(C)O1 (stereo not shown) [KRIBB-BH-P]
VEGF expression (VEGF protein): decreased | insulin expression (Min 6 cell line): increased | lens opacity (lens): more inhibited | blood glucose (C57BL/Ks DB/DB mouse): remarkably decreased | efficacy in oral glucose tolerance test (blood glucose) (C57BL/6J mouse): highest efficacy | glycated hemoglobin value (diabetic mouse [1]): remarkably decreased | concentration of creatinine in the blood (diabetic model mouse): decreased | concentration of creatinine in the urine (diabetic model mouse): increased | liver toxicity (diabetic mouse [2]): no liver toxicity | bilirubin value (diabetic mouse [3]): included in a normal range | insulin resistance (HOMA-IR) (diabetic mouse [4]): remarkably excellent result | β-cell functionality (HOMA-beta) (diabetic mouse [4]): remarkably excellent result | expression of adiponectin (adiponectin): increased | concentration ratio of insulin to glucagon (glucagon; compared to the diabetic mouse control group): remarkably increased | concentration of plasma glucagon (glucagon; lower than that of the group treated with the drugs, FIG. 16): remarkably decreased | activity of DPP IV (DPP-IV): inhibited | activity of alpha-glucosidase (alpha-glucosidase): inhibited | TNF-α concentration (TNF-α): decreased | turbidity of the eye lens (diabetic mouse [5]): decreased
